Columns and labels:
hEP2 [1] = target: T1, hEP2 (Homo sapiens, UniProt P43116); assay: FLIPR calcium signal, hEP2; type: cell-based; set-up: expressed in transfected cells; host or cells: HEK-293(EBNA); details: HEK-293(EBNA) cells expressing hEP2/Gqs5
Protocol: (§1) Methods for FLIPR™ Studies
(§2) HEK-293(EBNA) cells, stably expressing one type or subtype of recombinant human prostaglandin receptors (prostaglandin receptors expressed: hDP/Gqs5; hEP1; hEP2/Gqs5; hEP3A/Gqi5; hEP4/Gqs5; hFP; hIP; hTP), were cultured in 100 mm culture dishes in high-glucose DMEM medium containing 10% fetal bovine serum, 2 mM 1-glutamine, 250 μg/ml geneticin (G418) and 200 μg/ml hygromycin B as selection markers, and 100 units/ml penicillin G, 100 μg/ml streptomycin and 0.25 μg/ml amphotericin B.
(§3) Cells were seeded at a density of 5×10^4 cells per well in Biocoat® Poly-D-lysine-coated black-wall, clear-bottom 96-well plates (Becton-Dickinson) and allowed to attach overnight in an incubator at 37° C. Cells were then washed two times with HBSS-HEPES buffer (Hanks Balanced Salt Solution without bicarbonate and phenol red, 20 mM HEPES, pH 7.4) using a Denley Cellwash plate washer (Labsystems). After 45 minutes of dye-loading in the dark, using the calcium-sensitive dye Fluo-4 AM at a final concentration of 2 μM, plates were washed four times with HBSS-HEPES buffer to remove excess dye leaving 100 μl in each well. Plates were re-equilibrated to 37° C. for a few minutes.
(§4) Cells were excited with an Argon laser at 488 nm, and emission was measured through a 510-570 nm bandwidth emission filter (FLIPR™, Molecular Devices, Sunnyvale, Calif.). Drug solution was added in a 50 μl volume to each well to give the desired final concentration. The peak increase in fluorescence intensity was recorded for each well. On each plate, four wells each served as negative (HBSS-HEPES buffer) and positive controls (standard agonists: BW245C (hDP); PGE2 (hEP1; hEP2/Gqs5; hEP3A/Gqi5; hEP4/Gqs5); PGF2α (hFP); carbacyclin (hIP); U-46619 (hTP), depending on receptor). The peak fluorescence change in each drug-containing well was then expressed relative to the controls.
(§5) Compounds were tested in a high-throughput (HTS) or concentration-response (CoRe) format. In the HTS format, forty-four compounds per plate were examined in duplicates at a concentration of 10^−5 M. To generate concentration-response curves, four compounds per plate were tested in duplicates in a concentration range between 10^−5 and 10^−11 M. The duplicate values were averaged. In either, HTS or CoRe format each compound was tested on at least 3 separate plates using cells from different passages to give an n≧3.

hEP4 [2] = target: T2, hEP4 (Homo sapiens, UniProt P35408); assay: FLIPR calcium signal, hEP4; type: cell-based; set-up: expressed in transfected cells; host or cells: HEK-293(EBNA); details: HEK-293(EBNA) cells expressing hEP4/Gqs5
Protocol: as §1, §2, §3, §4, §5

hEP2 [3] = target: T1, hEP2; assay: cAMP assay, hEP2; type: cell-based
hEP2 [4] = target: T1, hEP2; assay: Competition binding, [3H]PGE2, human EP2 receptors; set-up: expressed in transfected cells; host or cells: HEK 293; details: [3H]PGE2, HEK 293 cells stably expressing human EP2; read-out: hEP2 Ki
Protocol: Competition binding experiments were performed in a medium containing Hank's balanced salt solution, Hepes 20 mM, pH 7.3, membranes (˜60 μg protein) or 2×10^5 cells from HEK 293 cells stably expressing human EP2 receptors, [^3H]PGE2 (10 nM) and various concentrations of test compounds in a total volume of 300 μl. Reaction mixtures were incubated at 23° C. for 60 min, and were filtered over Whatman GF/B filters under vacuum. Filters were washed three times with 5 ml ice-cold buffer containing 50 mM Tris/HCl (pH 7.3). Non-specific binding was estimated in the presence of excess unlabeled PGE2 (10 μM). Binding data fitted to the binding model for a single class of binding sites, using nonlinear regression analysis. IC50 values thus obtained were converted to Ki using the equation of Ki=(IC50/(1+[L]/KD) where [L] represents PGE2 concentration (10 nM) and KD the dissociation constant for [^3H]PGE2 at human EP2 receptors (40 nM).
(§6) HEK-293 cells stably expressing the human or feline FP receptor, or EP1, EP2, or EP4 receptors were washed with TME buffer, scraped from the bottom of the flasks, and homogenized for 30 sec using a Brinkman PT 10/35 polytron. TME buffer was added to achieve a final 40 ml volume in the centrifuge tubes (the composition of TME is 100 mM TRIS base, 20 mM MgCl2, […]; 10N HCl is added to achieve a pH of 7.4).
(§7) The cell homogenate was centrifuged at 19000 r.p.m. for 20 min at 4° C. using a Beckman Ti-60 rotor. The resultant pellet was resuspended in TME buffer to give a final 1 mg/ml protein concentration, as determined by Biorad assay. Radioligand binding competition assays vs. [3H-] 17-phenyl PGF2, (5 nM) were performed in a 100 μl volume for 60 min. Binding reactions were started by adding plasma membrane fraction. The reaction was terminated by the addition of 4 ml ice-cold TRIS-HCl buffer and rapid filtration through glass fiber GF/B filters using a Brandel cell harvester. The filters were washed 3 times with ice-cold buffer and oven dried for one hour.
(§8) [^3H-] PGE2 (specific activity 180 Ci mmol) was used as the radioligand for EP receptors. [^3H] 17-phenyl PGF2, was employed for FP receptor binding studies. Binding studies employing EP1, EP2, EP4 and FP receptors were performed in duplicate in at least three separate experiments. A […] assay volume was used. Incubations were for 60 min at 25° C. and were terminated by the addition of 4 ml of ice-cold 50 mM TRIS-HCl, followed by rapid filtration through Whatman GF/B filters and three additional 4 ml washes in a cell harvester (Brandel). Competition studies were performed using a final concentration of 5 nM [^3H]-PGE2, or 5 nM [^3H] 17-phenyl PGF2, and non-specific binding determined with 10^−5M of unlabeled PGE2, or 17-phenyl PGF2α, according to receptor subtype studied.

hEP4 [5] = target: T2, hEP4; assay: Radioligand binding, EP4 receptor; set-up: expressed in transfected cells; host or cells: HEK-293; details: [3H]PGE2, HEK-293 cells expressing EP4
Protocol: as §6, §7, §8

T1 sequence (P43116 whole entry): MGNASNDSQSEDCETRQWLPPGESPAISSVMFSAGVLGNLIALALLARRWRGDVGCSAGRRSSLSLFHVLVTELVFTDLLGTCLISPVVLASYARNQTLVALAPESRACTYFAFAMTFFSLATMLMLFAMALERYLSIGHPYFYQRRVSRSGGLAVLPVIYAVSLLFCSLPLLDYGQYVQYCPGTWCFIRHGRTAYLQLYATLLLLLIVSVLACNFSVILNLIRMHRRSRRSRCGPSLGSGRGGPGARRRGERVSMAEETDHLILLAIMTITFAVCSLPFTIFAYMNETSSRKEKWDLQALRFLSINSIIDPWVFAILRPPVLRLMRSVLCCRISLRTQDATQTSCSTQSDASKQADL
T2 sequence (P35408 whole entry): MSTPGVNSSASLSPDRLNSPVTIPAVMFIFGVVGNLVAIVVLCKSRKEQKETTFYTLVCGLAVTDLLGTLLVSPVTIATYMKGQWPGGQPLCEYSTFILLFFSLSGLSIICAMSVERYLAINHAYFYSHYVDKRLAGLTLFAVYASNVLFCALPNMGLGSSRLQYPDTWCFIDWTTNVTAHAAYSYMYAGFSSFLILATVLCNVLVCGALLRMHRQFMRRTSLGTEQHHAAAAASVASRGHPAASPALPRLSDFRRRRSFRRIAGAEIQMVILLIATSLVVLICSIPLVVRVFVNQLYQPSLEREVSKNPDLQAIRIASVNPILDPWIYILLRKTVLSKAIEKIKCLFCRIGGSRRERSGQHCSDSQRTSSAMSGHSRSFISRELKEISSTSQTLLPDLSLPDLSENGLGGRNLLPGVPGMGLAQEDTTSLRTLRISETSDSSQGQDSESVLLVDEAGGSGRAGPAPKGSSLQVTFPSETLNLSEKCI

EC50 (hEP2 [1])	EC50 (hEP4 [2])	EC50 (hEP2 [3])	Ki (hEP2 [4])	Ki (hEP4 [5])	Compound
234 nM	> 10000 nM	58 nM	951 nM	> 10000 nM	CCCC(O)c1cccc(OC[C@@H]2[C@@H](C/C=C\CCCC(=O)O)[C@H](Cl)C[C@H]2O)c1 (stereo partly drawn) [Example 52, (Z)-7-{(1R,2S,3R,5R)-5-Chloro-3-hydroxy-2-[3-(1-hydroxy-butyl)-phenoxymethyl]-cyclopentyl}-hept-5-enoic acid]
111 nM	1170 nM	24 nM	603 nM	5060 nM	O=C(O)CCC/C=C\C[C@@H]1[C@@H](COc2cccc(O)c2)[C@H](O)C[C@H]1Cl [Example 30, (Z)-7-[(1R,2S,3R,5R)-5-Chloro-3-hydroxy-2-(3-hydroxy-phenoxymethyl)-cyclopentyl]-hept-5-enoic acid]
112 nM	13000 nM	9 nM	155 nM	1840 nM	Cc1cccc(OC[C@@H]2[C@@H](C/C=C\CCCC(=O)O)[C@H](Cl)C[C@H]2O)c1 [Example 25, (Z)-7-((1R,2S,3R,5R)-5-Chloro-3-hydroxy-2-m-tolyloxymethyl-cyclopentyl)-hept-5-enoic acid]
51 nM	> 10000 nM	2.4 nM	172 nM	1100 nM	Cc1ccc(C)c(OC[C@@H]2[C@@H](C/C=C\CCCC(=O)O)[C@H](Cl)C[C@H]2O)c1 [Example 34, (Z)-7-[(1R,2S,3R,5R)-5-Chloro-2-(2,5-dimethyl-phenoxymethyl)-3-hydroxy-cyclopentyl]-hept-5-enoic acid]
1970 nM	> 10000 nM	18 nM	161 nM		O=C(O)CCC/C=C\C[C@@H]1[C@@H](COc2cccc(CCO)c2)[C@H](O)C[C@H]1Cl [Example 62, (Z)-7-{(1R,2S,3R,5R)-5-Chloro-3-hydroxy-2-[3-(2-hydroxy-ethyl)-phenoxymethyl]-cyclopentyl}-hept-5-enoic acid]
277 nM	7250 nM	72 nM	620 nM		Cc1ccc(OC[C@@H]2[C@@H](C/C=C\CCCC(=O)O)[C@H](Cl)C[C@H]2O)c(C)c1 [Example 33, (Z)-7-[(1R,2S,3R,5R)-5-Chloro-2-(2,4-dimethyl-phenoxymethyl)-3-hydroxy-cyclopentyl]-hept-5-enoic acid]

The remaining lines, values behind:

Compound	EC50 (hEP2 [1])	EC50 (hEP4 [2])	EC50 (hEP2 [3])	Ki (hEP2 [4])	Ki (hEP4 [5])
O=C(O)CCC/C=C\C[C@@H]1[C@@H](COc2cc(C(F)(F)F)cc(Cl)c2F)[C@H](O)C[C@H]1Cl [Example 41, (Z)-7-[(1R,2S,3R,5R)-5-Chloro-2-(3-chloro-2-fluoro-5-trifluoromethyl-phenoxymethyl)-3-hydroxy-cyclopentyl]-hept-5-enoic acid]	13 nM	> 10000 nM	1.3 nM	16 nM	1710 nM
O=C(O)CCC/C=C\C[C@@H]1[C@@H](COc2ccc(Cl)cc2)[C@H](O)C[C@H]1Cl [Example 23, (Z)-7-[(1R,2S,3R,5R)-5-Chloro-2-(4-chloro-phenoxymethyl)-3-hydroxy-cyclopentyl]-hept-5-enoic acid]	45 nM	2860 nM	10 nM	32 nM	3220 nM
O=C(O)CCCCCC[C@@H]1[C@@H](COc2ccc3ccccc3c2)[C@H](O)C[C@H]1Cl [Example 18, (Z)-7-[(1R,2S,3R,5R)-5-Chloro-3-hydroxy-2-(naphthalen-2-yloxymethyl)-cyclopentyl]-heptanoic acid]	453 nM	6310 nM	65 nM	89 nM	973 nM
O=C(O)CCC/C=C\C[C@@H]1[C@@H](COc2ccc(Cl)c3ccccc23)[C@H](O)C[C@H]1Cl [Example 40, (Z)-7-[(1R,2S,3R,5R)-5-Chloro-2-(4-chloro-naphthalen-1-yloxymethyl)-3-hydroxy-cyclopentyl]-hept-5-enoic acid]	29 nM	5890 nM	0.7 nM	2 nM	491 nM
Cc1cccc(C)c1OC[C@@H]1[C@@H](C/C=C\CCCC(=O)O)[C@H](Cl)C[C@H]1O [Example 35, (Z)-7-[(1R,2S,3R,5R)-5-Chloro-2-(2,6-dimethyl-phenoxymethyl)-3-hydroxy-cyclopentyl]-hept-5-enoic acid]	5580 nM	> 10000 nM	3350 nM	4320 nM	> 10000 nM
Cc1cc(OC[C@@H]2[C@@H](C/C=C\CCCC(=O)O)[C@H](Cl)C[C@H]2O)cc(C)c1C [Example 38, (Z)-7-[(1R,2S,3R,5R)-5-Chloro-3-hydroxy-2-(3,4,5-trimethyl-phenoxymethyl)-cyclopentyl]-hept-5-enoic acid]	2.3 nM	> 10000 nM	1.5 nM	25 nM	606 nM
O=C(O)CCC/C=C\C[C@@H]1[C@@H](COc2ccc(CCO)cc2)[C@H](O)C[C@H]1Cl [Example 63, (Z)-7-{(1R,2S,3R,5R)-5-Chloro-3-hydroxy-2-[4-(2-hydroxy-ethyl)-phenoxymethyl]-cyclopentyl}-hept-5-enoic acid]	> 10000 nM	> 10000 nM		1990 nM	
O=C(O)CCC/C=C\C[C@@H]1[C@@H](COc2ccccc2CCO)[C@H](O)C[C@H]1Cl [Example 61, (Z)-7-{(1R,2S,3R,5R)-5-Chloro-3-hydroxy-2-[2-(2-hydroxy-ethyl)-phenoxymethyl]-cyclopentyl}-hept-5-enoic acid]	5980 nM	> 10000 nM	128 nM	3910 nM	
